Consider eight compounds from PubChem BioAssay AID1259407 (Chemical Carcinogenesis Research Information System (CCRIS), 2018).

The subject of the data set is CCRIS mutagenicity, Ames/micronucleus/aberration tests. The experiment in a line: CCRIS mutagenicity studies.
The mark [1] stands for this setting: Test System: AMES SALMONELLA TYPHIMURIUM, Strain/Indicator: TA98, Metabolic Activation: NONE, Method: STANDARD PLATE.
Where [2] appears, read: Test System: AMES SALMONELLA TYPHIMURIUM, Strain/Indicator: TA100, Metabolic Activation: NONE, Method: STANDARD PLATE.

The source made the active and inactive calls. No rule for the calls is given here.

In the case of `Clc1cccc(Cl)c1`, the mutagenic call is “inactive; negative” (Test System: AMES SALMONELLA TYPHIMURIUM, Strain/Indicator: TA98, Metabolic Activation: HAMSTER, LIVER, S-9, AROCLOR 1254, Method: PREINCUBATION); “inactive; negative” (Test System: AMES SALMONELLA TYPHIMURIUM, Strain/Indicator: TA98, Metabolic Activation: NONE, Method: PREINCUBATION); “inactive; negative” under setting [1]; “inactive; negative” (Test System: AMES SALMONELLA TYPHIMURIUM, Strain/Indicator: TA98, Metabolic Activation: RAT, LIVER, S-9, AROCLOR 1254, Method: PREINCUBATION); “inactive; negative” (Test System: AMES SALMONELLA TYPHIMURIUM, Strain/Indicator: TA98, Metabolic Activation: RAT, LIVER, S-9, AROCLOR, Method: STANDARD PLATE); “inactive; negative” (Test System: AMES SALMONELLA TYPHIMURIUM, Strain/Indicator: TA100, Metabolic Activation: HAMSTER, LIVER, S-9, AROCLOR 1254, Method: PREINCUBATION). Also, the mutagenic call is “inactive; negative” (Test System: AMES SALMONELLA TYPHIMURIUM, Strain/Indicator: TA100, Metabolic Activation: NONE, Method: PREINCUBATION); “inactive; negative” under setting [2]; “inactive; negative” (Test System: AMES SALMONELLA TYPHIMURIUM, Strain/Indicator: TA100, Metabolic Activation: RAT, LIVER, S-9, AROCLOR 1254, Method: PREINCUBATION); “inactive; negative” (Test System: AMES SALMONELLA TYPHIMURIUM, Strain/Indicator: TA100, Metabolic Activation: RAT, LIVER, S-9, AROCLOR, Method: STANDARD PLATE); “inactive; negative” (Test System: AMES SALMONELLA TYPHIMURIUM, Strain/Indicator: TA1535, Metabolic Activation: HAMSTER, LIVER, S-9, AROCLOR 1254, Method: PREINCUBATION); “inactive; negative” (Test System: AMES SALMONELLA TYPHIMURIUM, Strain/Indicator: TA1535, Metabolic Activation: NONE, Method: PREINCUBATION). Further, the mutagenic call is “inactive; negative” (Test System: AMES SALMONELLA TYPHIMURIUM, Strain/Indicator: TA1535, Metabolic Activation: RAT, LIVER, S-9, AROCLOR 1254, Method: PREINCUBATION); “inactive; negative” (Test System: AMES SALMONELLA TYPHIMURIUM, Strain/Indicator: TA1537, Metabolic Activation: HAMSTER, LIVER, S-9, AROCLOR 1254, Method: PREINCUBATION); “inactive; negative” (Test System: AMES SALMONELLA TYPHIMURIUM, Strain/Indicator: TA1537, Metabolic Activation: NONE, Method: PREINCUBATION); “inactive; negative” (Test System: AMES SALMONELLA TYPHIMURIUM, Strain/Indicator: TA1537, Metabolic Activation: RAT, LIVER, S-9, AROCLOR 1254, Method: PREINCUBATION); “inactive; negative” (Test System: AMES SALMONELLA TYPHIMURIUM, Strain/Indicator: UTH8413, Metabolic Activation: NONE, Method: STANDARD PLATE); “inactive; negative” (Test System: AMES SALMONELLA TYPHIMURIUM, Strain/Indicator: UTH8413, Metabolic Activation: RAT, LIVER, S-9, AROCLOR, Method: STANDARD PLATE). Further, the mutagenic call (Test System: AMES SALMONELLA TYPHIMURIUM, Strain/Indicator: UTH8414, Metabolic Activation: NONE, Method: STANDARD PLATE) is “inactive; negative” and the mutagenic call (Test System: AMES SALMONELLA TYPHIMURIUM, Strain/Indicator: UTH8414, Metabolic Activation: RAT, LIVER, S-9, AROCLOR, Method: STANDARD PLATE) is “inactive; negative”.
As for `C/C=C/C=C/C(=O)O`, the mutagenic call is “inactive; negative” (Test System: AMES SALMONELLA TYPHIMURIUM, Strain/Indicator: TA97A, Metabolic Activation: NONE, Method: PREINCUBATION); “inactive; negative” (Test System: AMES SALMONELLA TYPHIMURIUM, Strain/Indicator: TA97A, Metabolic Activation: RAT, LIVER, S-9, AROCLOR 1254, Method: PREINCUBATION); “inactive; negative” (Test System: AMES SALMONELLA TYPHIMURIUM, Strain/Indicator: TA102, Metabolic Activation: NONE, Method: PREINCUBATION); “inactive; negative” (Test System: AMES SALMONELLA TYPHIMURIUM, Strain/Indicator: TA102, Metabolic Activation: RAT, LIVER, S-9, AROCLOR 1254, Method: PREINCUBATION); “active; positive” (Test System: CHINESE HAMSTER V-79, Strain/Indicator: V-79/6-THIOGUANINE, Metabolic Activation: NONE, Method: FLASK ASSAY).
Turning to `c1ccc2c(c1)c1ccccc1c1cc3cnccc3cc21`, the mutagenic call reads like this: under setting [1], “inactive; negative”; (Test System: AMES SALMONELLA TYPHIMURIUM, Strain/Indicator: TA98, Metabolic Activation: RAT, LIVER, S-9, AROCLOR 1254 (10%), Method: STANDARD PLATE) “active; positive”; (Test System: AMES SALMONELLA TYPHIMURIUM, Strain/Indicator: TA98, Metabolic Activation: RAT, LIVER, S-9, AROCLOR 1254, Method: STANDARD PLATE) “active; positive”; under setting [2], “inactive; negative”; (Test System: AMES SALMONELLA TYPHIMURIUM, Strain/Indicator: TA100, Metabolic Activation: RAT, LIVER, S-9, AROCLOR 1254 (10%), Method: STANDARD PLATE) “active; positive”; (Test System: AMES SALMONELLA TYPHIMURIUM, Strain/Indicator: TA100, Metabolic Activation: RAT, LIVER, S-9, AROCLOR 1254, Method: STANDARD PLATE) “active; positive”.
As to `CCCCCC/C=C/C=O`, the mutagenic call was “inactive; negative” (End Point: IN VITRO CHROMOSOMAL ABERRATIONS, Test System: RAT HEPATOCYTES, Metabolic Activation: NONE); “inactive; negative” (End Point: IN VITRO MICRONUCLEUS, Test System: RAT HEPATOCYTES, Metabolic Activation: NONE); “active; positive” (Test System: CHINESE HAMSTER V-79, Strain/Indicator: V-79/6-THIOGUANINE, Metabolic Activation: NONE, Method: STANDARD PLATE); “inactive; negative” (Test System: CHINESE HAMSTER V-79, Strain/Indicator: V-79/OUABAIN, Metabolic Activation: NONE, Method: STANDARD PLATE).
Take `c1ccc(-c2ccnc3c2ccc2c(-c4ccccc4)ccnc23)cc1`: the mutagenic call was “active; positive” (Test System: Mouse lymphoma, Strain/Indicator: L5178Y (tk+/tk-), Metabolic Activation: None, Method: Suspension/plate) and “equivocal” (Test System: Mouse lymphoma, Strain/Indicator: L5178Y (tk+/tk-), Metabolic Activation: Rat, Liver, S-9, Aroclor 1254, Method: Suspension/plate).
Take `CC(Br)C(=O)NCc1ccc(Cl)cc1` (stereo not given): the mutagenic call is “active; positive” (Test System: AMES SALMONELLA TYPHIMURIUM, Strain/Indicator: TA100, Metabolic Activation: MOUSE, LIVER, S-9, AROCLOR 1254, Method: STANDARD PLATE) and “active; positive” under setting [2].
Regarding `c1ccc2sc(SNC3CCCCC3)nc2c1`, the mutagenic call is, setting by setting: under setting [1], “inactive; negative”; (Test System: AMES SALMONELLA TYPHIMURIUM, Strain/Indicator: TA98, Metabolic Activation: S-9, Method: STANDARD PLATE) “inactive; negative”; under setting [2], “inactive; negative”; (Test System: AMES SALMONELLA TYPHIMURIUM, Strain/Indicator: TA100, Metabolic Activation: S-9, Method: STANDARD PLATE) “inactive; negative”.
Consider `CC(=O)OCc1c2ccccc2cc2c1ccc1ccccc12`, for which the mutagenic call is, setting by setting: under setting [1], “active; positive”; under setting [2], “active; positive”.
